Counter-ions that a name gives are not always drawn.
What was measured:
HSP60/HSP10 [1] = biological target: HSP60/HSP10 (Homo sapiens, UniProt P10809)
Description: (§1) Inhibition of human N-terminal octa-His-tagged HSP60 expressed in Escherichia coli Rosetta(DE3) pLysS/human HSP10 expressed in Escherichia coli Rosetta(DE3) assessed as reduction in HSP60/HSP10-mediated denatured MDH refolding by measuring MDH enzyme activity using sodium mesoxalate as substrate after 40 to 60 mins by malachite green dye based spectrometric analysis

E. coli GroEL/ES [2] = biological target: T1, E. coli GroEL/ES (Escherichia coli, UniProt P0A6F5)
Description: (§2) Inhibition of Escherichia coli GroEL expressed in Escherichia coliDH5alpha/Escherichia coli GroES expressed in Escherichia coli BL21 (DE3) assessed as reduction in GroEL/GroES-mediated denatured soluble pig heart MDH refolding by measuring MDH enzyme activity using sodium mesoxalate as substrate after 20 to 40 mins by malachite green dye based spectrometric analysis

Chaperonin GroEL = Chaperonin GroEL (Escherichia coli (strain K12), UniProt P0A6F5);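 also: inhibition of GroEL ATPase activity with ATP as substrate, 60 min incubation, spectrometric read-out, recombinant enzyme produced in Escherichia coli DH5alpha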
Description: Inhibition of ATPase activity of Escherichia coli GroEL expressed in Escherichia coliDH5alpha incubated for 60 mins using ATP by spectrometric analysis

E. coli GroEL/ES [3] = biological target: T1, E. coli GroEL/ES; remark: listed apart in the source
Description: (§3) Inhibition of Escherichia coli GroEL expressed in Escherichia coli DH5alpha/Escherichia coli GroES expressed in Escherichia coli BL21 (DE3) assessed as reduction in GroEL/GroES-mediated denatured rhodanese refolding by measuring rhodanese enzyme activity after 45 mins by Fe(SCN)3 dye based spectrometric analysis

[4] = biological target: T2, Thiosulfate sulfurtransferase (Homo sapiens, UniProt Q16762); type: ADME;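 also: native rhodanese of unspecified species, enzyme activity read after 45 min by spectrophotometric detection of Fe(SCN)3 colour, IC50 reflects activity reduction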
T2 sequence (Q16762 whole entry): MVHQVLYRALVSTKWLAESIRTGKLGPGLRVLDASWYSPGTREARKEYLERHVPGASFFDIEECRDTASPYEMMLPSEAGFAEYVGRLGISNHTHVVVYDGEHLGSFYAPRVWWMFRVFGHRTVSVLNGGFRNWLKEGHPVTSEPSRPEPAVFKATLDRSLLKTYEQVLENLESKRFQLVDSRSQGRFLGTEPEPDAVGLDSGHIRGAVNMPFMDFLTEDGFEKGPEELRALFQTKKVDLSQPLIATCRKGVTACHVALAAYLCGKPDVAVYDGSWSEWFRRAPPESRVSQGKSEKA
Description: Inhibition of native rhodanese (unknown origin) assessed as reduction in rhodanese enzyme activity after 45 mins by Fe(SCN)3 dye based spectrometric analysis

HSP60/HSP10 [5] = biological target: HSP60/HSP10 (Homo sapiens, UniProt P10809+P61604)
Chain of HSP60/HSP10 (Homo sapiens, UniProt P10809+P61604) (P10809 whole entry): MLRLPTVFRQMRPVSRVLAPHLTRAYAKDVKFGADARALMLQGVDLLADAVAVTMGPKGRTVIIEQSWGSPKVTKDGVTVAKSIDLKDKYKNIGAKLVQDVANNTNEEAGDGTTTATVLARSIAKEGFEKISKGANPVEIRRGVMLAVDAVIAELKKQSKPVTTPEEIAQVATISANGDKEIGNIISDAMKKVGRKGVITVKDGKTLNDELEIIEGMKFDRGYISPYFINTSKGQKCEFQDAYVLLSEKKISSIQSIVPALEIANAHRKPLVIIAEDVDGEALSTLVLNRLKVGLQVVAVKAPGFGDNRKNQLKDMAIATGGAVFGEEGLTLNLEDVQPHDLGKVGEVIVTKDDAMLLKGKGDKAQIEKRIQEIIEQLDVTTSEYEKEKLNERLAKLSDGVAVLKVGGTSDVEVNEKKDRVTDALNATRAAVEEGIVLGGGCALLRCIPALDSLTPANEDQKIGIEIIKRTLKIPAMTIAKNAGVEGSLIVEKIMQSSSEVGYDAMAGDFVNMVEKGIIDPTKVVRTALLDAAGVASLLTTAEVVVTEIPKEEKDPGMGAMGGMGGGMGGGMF
Chain of HSP60/HSP10 (Homo sapiens, UniProt P10809+P61604) (P61604 whole entry): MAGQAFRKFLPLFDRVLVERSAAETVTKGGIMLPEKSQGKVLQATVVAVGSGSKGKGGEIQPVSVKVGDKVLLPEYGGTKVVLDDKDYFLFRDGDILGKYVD
Description: as §1

GroEL/GroES [6] = biological target: GroEL/GroES; design: species or system Escherichia coli
Description: as §2

GroEL/GroES [7] = biological target: GroEL/GroES; design: species or system Escherichia coli; remark: listed apart in the source
Description: as §3

T1 sequence (P0A6F5 whole entry, looked up): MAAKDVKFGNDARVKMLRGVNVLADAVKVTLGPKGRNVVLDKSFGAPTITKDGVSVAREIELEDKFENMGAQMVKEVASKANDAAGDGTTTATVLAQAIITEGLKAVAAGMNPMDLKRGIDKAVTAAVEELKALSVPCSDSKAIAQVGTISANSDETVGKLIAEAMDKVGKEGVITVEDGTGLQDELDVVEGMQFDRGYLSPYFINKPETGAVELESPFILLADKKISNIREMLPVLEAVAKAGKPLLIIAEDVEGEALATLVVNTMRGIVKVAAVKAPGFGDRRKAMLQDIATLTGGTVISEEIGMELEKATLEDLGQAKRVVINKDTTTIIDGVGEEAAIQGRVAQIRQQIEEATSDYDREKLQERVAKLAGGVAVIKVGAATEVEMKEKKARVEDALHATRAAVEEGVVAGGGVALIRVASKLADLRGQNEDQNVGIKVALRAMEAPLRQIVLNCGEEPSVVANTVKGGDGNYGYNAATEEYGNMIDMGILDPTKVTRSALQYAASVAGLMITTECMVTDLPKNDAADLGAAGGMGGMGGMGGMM
Chain of Chaperonin GroEL (P0A6F5 whole entry): as the sequence (P0A6F5 whole entry, looked up) above
Chain of HSP60/HSP10 (Homo sapiens, UniProt P10809) (P10809 whole entry): as the sequence (P10809 whole entry) above
Chain of HSP60/HSP10 (Homo sapiens, UniProt P10809) (P61604 whole entry, further chain): as the sequence (P61604 whole entry) above

Row | SMILES | IC50 (HSP60/HSP10 [1]) [µM] | IC50 (E. coli GroEL/ES [2]) [µM] | IC50 (Chaperonin GroEL) [µM] | IC50 (E. coli GroEL/ES [3]) [µM] | IC50 [4] [µM] | IC50 (HSP60/HSP10 [5]) [µM] | IC50 (GroEL/GroES [6]) [µM] | IC50 (GroEL/GroES [7]) [µM]
1 | CN(C)c1ccc(C(=C2C=CC(=[N+](C)C)C=C2)c2ccc(N(C)C)cc2)cc1 [GENTIAN VIOLET] | 5.8 | 11 | > 250 | 15 | 16 |  |  | 
2 | O=c1c(O)c(-c2ccc(O)c(O)c2)oc2c(O)c(O)cc(O)c12 [GOSSYPETIN] | 7.5 | 2.1 | > 250 | 0.39 | 0.33 |  |  | 
3 | Oc1c(Cl)cc(Cl)c(Cl)c1Cc1c(O)c(Cl)cc(Cl)c1Cl [HEXACHLOROPHENE] | 1.3 | 1.4 | 153 | 4.7 | 51 |  |  | 
4 | CC[n+]1c(-c2ccccc2)c2cc(N)ccc2c2ccc(N)cc21 [HOMIDIUM BROMIDE] | > 100 | > 100 | > 250 | 2.4 | 0.83 |  |  | 
5 | CC1(C)CCC2=C(O1)c1ccccc1C(=O)C2=O [LAPACHONE] | 2.1 | 1.3 | > 250 | 0.59 | 0.12 |  |  | 
6 | CC1=CC(=O)c2ccccc2C1=O [MENADIONE] | 15 | 9 | > 250 | 2.5 | 1 |  |  | 
7 | O=c1c(O)c(-c2ccc(O)cc2O)oc2cc(O)cc(O)c12 [MORIN] | 11 | 8.5 | > 250 | 5.2 | 57 |  |  | 
8 | CC(COc1ccccc1)N(CCCl)Cc1ccccc1 (centres undefined) [PHENOXYBENZAMINE HYDROCHLORIDE] | 78 | 40 | > 250 | 129 | > 100 |  |  | 
9 | CC1=CC(=O)c2c(O)cccc2C1=O [PLUMBAGIN] | 6.3 | 3.8 | > 250 | 0.29 | 0.06 |  |  | 
10 | C=CC1=C(C)c2cc3[nH]c(cc4nc(cc5[nH]c(cc1n2)c(C)c5CCC(=O)O)C(CCC(=O)O)=C4C)c(C)c3C=C [PROTOPORPHYRIN] |  |  | > 250 |  |  | 4.9 | 4.4 | 3
11 | O=C1c2ccccc2C(=O)c2c(O)c(O)cc(O)c21 [PURPURIN] | 23 | 15 | > 250 | 4 | 2.3 |  |  | 
12 | O=C(OC[C@H]1O[C@@H](OC(=O)c2cc(O)c(O)c(OC(=O)c3cc(O)c(O)c(O)c3)c2)[C@H](OC(=O)c2cc(O)c(O)c(OC(=O)c3cc(O)c(O)c(O)c3)c2)[C@@H](OC(=O)c2cc(O)c(O)c(OC(=O)c3cc(O)c(O)c(O)c3)c2)[C@@H]1OC(=O)c1cc(O)c(O)c(OC(=O)c2cc(O)c(O)c(O)c2)c1)c1cc(O)c(O)c(OC(=O)c2cc(O)c(O)c(O)c2)c1 [TANNIC ACID] | 3.8 | 0.87 | 137 | 1 | 39 |  |  | 
